# Data as given in BindingDB's records for doi:10.1016/j.bmc.2020.115887 (Duquesne University, 2021).
# Experiment: Inhibition of beta3 Tubulin (unknown origin) expressed in human HeLa cell line assessed as inhibition of cell proliferation measured after 48 hrs by SRB method
row,IC50 [nM],SMILES
1,9.6,COc1ccc(N(C)c2nc(C)nc3c2CCC3)cc1
2,43,COc1cccc2cc(N(C)c3ncnc4c3CCC4)ccc12
3,9.6,COc1cccc2cc(N(C)c3nc(N)nc4c3CCC4)ccc12
4,180,COc1ccc(N(C)c2nc(C)nc3c2CCC3)c2ccccc12
